Results as given in publication PMC3898925 (Journal of Molecular Biology, 2010).

Columns and labels:
WsaF [1] = target: T1, WsaF (Geobacillus stearothermophilus, UniProt Q7BG50, K78A/K79A/K81A); assay: X-ray crystal structure of soaked complex, […] Å; assay type: binding; conditions: crystal soaked 5 min in 20 mM dTDP-β-L-Rha; WsaFSER2 (b48 prints K78A/E79A/K81A); authors regard rhamnose ring position as incorrect
T1 construct: recombinant WsaF from pET28a-WsaF in E. coli BL21(DE3) Star; residues M1 to L413 mentioned
T1 sequence (Q7BG50 entry or part of it K78A/K79A/K81A): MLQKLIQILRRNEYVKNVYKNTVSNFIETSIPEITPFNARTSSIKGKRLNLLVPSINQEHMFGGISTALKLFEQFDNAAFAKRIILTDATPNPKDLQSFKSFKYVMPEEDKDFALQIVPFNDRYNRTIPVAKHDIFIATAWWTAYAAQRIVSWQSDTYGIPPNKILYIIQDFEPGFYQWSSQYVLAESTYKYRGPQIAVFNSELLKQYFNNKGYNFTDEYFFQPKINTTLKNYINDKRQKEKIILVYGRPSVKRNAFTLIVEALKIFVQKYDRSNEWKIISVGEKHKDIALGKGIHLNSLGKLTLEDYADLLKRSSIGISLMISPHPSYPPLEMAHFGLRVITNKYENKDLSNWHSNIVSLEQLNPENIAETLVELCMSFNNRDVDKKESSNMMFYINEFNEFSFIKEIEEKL

WsaF [2] = target: T2, WsaF (Geobacillus stearothermophilus, UniProt Q7BG50); assay: isothermal titration calorimetry; assay type: binding; conditions: 20 mM NaP pH 8.5, 50 mM NaCl, 20 °C; one-site model
T2 construct: recombinant WsaF from pET28a-WsaF in E. coli BL21(DE3) Star; residues M1 to L413 mentioned
T2 sequence (Q7BG50 1-413): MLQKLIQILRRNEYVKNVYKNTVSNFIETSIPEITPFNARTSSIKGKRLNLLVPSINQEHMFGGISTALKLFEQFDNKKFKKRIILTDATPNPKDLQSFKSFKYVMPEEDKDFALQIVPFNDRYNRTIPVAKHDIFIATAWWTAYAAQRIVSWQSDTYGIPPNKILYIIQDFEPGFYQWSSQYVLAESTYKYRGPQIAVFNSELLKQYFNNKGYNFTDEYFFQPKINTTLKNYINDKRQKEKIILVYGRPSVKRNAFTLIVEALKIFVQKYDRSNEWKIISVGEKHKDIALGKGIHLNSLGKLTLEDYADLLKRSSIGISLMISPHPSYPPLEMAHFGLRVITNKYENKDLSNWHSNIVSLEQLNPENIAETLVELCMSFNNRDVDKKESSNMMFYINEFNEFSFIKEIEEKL

WsaF [3] = target: T3, WsaF (Geobacillus stearothermophilus, UniProt Q7BG50, R254A); assay: isothermal titration calorimetry; assay type: binding; conditions: 20 mM NaP pH 8.5, 50 mM NaCl, 20 °C; one-site model
T3 construct: recombinant WsaF from pET28a-WsaF in E. coli BL21(DE3) Star; residues M1 to L413 mentioned
T3 sequence (Q7BG50 entry or part of it R254A): as the sequence (Q7BG50 entry or part of it K78A/K79A/K81A) above, with A78K, A79K, A81K, R254A counted along it

WsaF [4] = target: T1, WsaF; assay: X-ray crystal structure of soaked complex, […] Å; assay type: binding; conditions: crystal soaked 5 min in 25 mM dTDP; surface entropy reduction mutant WsaFSER2 (b48 prints K78A/E79A/K81A)
WsaF [5] = target: T4, WsaF (Geobacillus stearothermophilus, UniProt Q7BG50, E333A); assay: isothermal titration calorimetry; assay type: binding; conditions: 20 mM NaP pH 8.5, 50 mM NaCl, 20 °C; one-site model
T4 construct: recombinant WsaF from pET28a-WsaF in E. coli BL21(DE3) Star; residues M1 to L413 mentioned
T4 sequence (Q7BG50 entry or part of it E333A): as the sequence (Q7BG50 entry or part of it K78A/K79A/K81A) above, with A78K, A79K, A81K, E333A counted along it

[6] = target: the molecule itself; assay: crystal structure; SeMet-labelled WsaF, space group P2_(1), two molecules in the asymmetric unit, 2.28 Å

Cc1cn([C@H]2C[C@H](O)[C@@H](COP(=O)(O)OP(=O)(O)O[C@H]3O[C@@H](C)[C@H](O)[C@@H](O)[C@H]3O)O2)c(=O)[nH]c1=O [dTDP-β-L-rhamnose]
X-ray crystal structure of soaked complex, 2.55 Å (WsaF [1]): The structures of the dTDP-WsaFSER2 and dTDP-β-L-Rha-WsaFSER2 complexes were obtained by soaking

Cc1cn([C@H]2C[C@H](O)[C@@H](COP(=O)(O)OP(=O)(O)O)O2)c(=O)[nH]c1=O [dTDP]
isothermal titration calorimetry (WsaF [2]): showed weaker dTDP binding than native WsaF, when qualitatively comparing the curves (Fig. S3)
isothermal titration calorimetry (WsaF [3]): (ITC) of E333A and R254A showed weaker dTDP binding than native WsaF
X-ray crystal structure of soaked complex, 2.81 Å (WsaF [4]): The structures of the dTDP-WsaFSER2 and dTDP-β-L-Rha-WsaFSER2 complexes were obtained by soaking
isothermal titration calorimetry (WsaF [5]): The mutant E333A showed a reduced binding affinity for dTDP

B1: SeMet-labelled WsaF from Geobacillus stearothermophilus NRS 2004/3a (enzyme)
chain: MLQKLIQILRRNEYVKNVYKNTVSNFIETSIPEITPFNARTSSIKGKRLNLLVPSINQEHMFGGISTALKLFEQFDNKKFKKRIILTDATPNPKDLQSFKSFKYVMPEEDKDFALQIVPFNDRYNRTIPVAKHDIFIATAWWTAYAAQRIVSWQSDTYGIPPNKILYIIQDFEPGFYQWSSQYVLAESTYKYRGPQIAVFNSELLKQYFNNKGYNFTDEYFFQPKINTTLKNYINDKRQKEKIILVYGRPSVKRNAFTLIVEALKIFVQKYDRSNEWKIISVGEKHKDIALGKGIHLNSLGKLTLEDYADLLKRSSIGISLMISPHPSYPPLEMAHFGLRVITNKYENKDLSNWHSNIVSLEQLNPENIAETLVELCMSFNNRDVDKKESSNMMFYINEFNEFSFIKEIEEKL
modifications: selenomethionine (SeMet)-labelled
notes: WsaF, beta-1,2-rhamnosyltransferase of Geobacillus stearothermophilus NRS 2004/3a; the structure is described from M1 to L413 (M1-N25, Q58-G63 and N382-E389 with poor or no density); also called SeMet variant WsaF; SeMet-WsaF; source: E. coli BL21(DE3) Star, purified to homogeneity
stoichiometry N [6]: 2
